In US20190307820A1, “COMPOSITIONS AND METHODS OF USING STAT1/3 INHIBITORS WITH ONCOLYTIC HERPES VIRUS” (priority 2016, published 2019):

What was measured:
[1] = test system: pSTAT1 (Tyr701); test: Western blot of STAT 1 / pSTAT1 (Tyr701) in BV2 microglia cells; assay type: cell-based, mouse
Protocol: (§1) BV2 cells were pre-treated with vehicle or C16 (1 μM) for 2 hours and then incubated with vehicle or oHSV-1 (G207) at an MOI of 1 or oHSV-1 and C16 combination for 24 hours. Total protein was harvested and subjected to western blot assay. β-actin expression was used for loading control (means±SE).
(§2) BV2 cells were treated with either vehicle or Lps (1 μg/ml) or Lps (1 μg/ml) with C16 (1 μM) for 24 hours. Total protein was harvested and subjected to western blot assay. β-actin expression was used for loading control (means±SE).
Total protein was harvested with sample buffer (125 mM Tris-HCL, 50% Glycerol, […] and 5% 2-mercaptoethanol) and boiled for 5 minutes. Protein samples were subjected to SDS-PAGE (8% gel), transferred to nitrocellulose membranes and blocked in 5% nonfat milk (Bio Rad) in TBS-Tween 20 (TBS-T) for 1 hour at room temperature. The membranes were then incubated with primary antibody against β-actin at 1:1000 (Cell Signaling, Danvers, Mass.) or anti-STAT1 antibody at 1:1000 (Cell Signaling, Danvers, Mass.) or anti-STAT3 antibody at 1:1000 (Cell Signaling, Danvers, Mass.) or anti-phospho STAT1 antibody (Tyr701) at 1:1000 (Cell Signaling, Danvers, Mass.) or anti-phospho STAT3 antibody (Tyr705) at 1:1500 (Cell Signaling, Danvers, Mass.) or anti-phosphor-eIF2a antibody (ser51) at 1:1000 (Cell Signaling, Danvers, Mass.) or anti-ICP27 antibody at 1:1000 (Abcam, Cambridge, Mass.) or anti-ICP4 antibody at 1:750 (Abcam, Cambridge, Mass.) for overnight at 4° C. The membranes were washed the next day with TBS-T three times and incubated with corresponding secondary antibody at 1:3000 (Perkim Elmer, Boston, Mass.), for 1 hour at room temperature. Membranes were washed with TBS-T three times before visualization using ECL reagent (Perkim Elmer, Boston, Mass.) and VersaDoc imaging system (Bio-Rad). Band density was measured by using ImageJ software (NIH, Bethesda, Md.).

[2] = test system: pSTAT3 (Tyr705); test: Western blot of pSTAT3 (Tyr705) in BV2 microglia cells; assay type: cell-based, mouse; settings: C16 1 μM
Protocol: as §1, §2
Total protein was harvested with sample buffer (125 mM Tris-HCL, 50% Glycerol, […] and 5% 2-mercaptoethanol) and boiled for 5 minutes. Protein samples were subjected to SDS-PAGE (8% gel), transferred to nitrocellulose membranes and blocked in 5% nonfat milk (Bio Rad) in TBS-Tween 20 (TBS-T) for 1 hour at room temperature. […] Band density was measured by using ImageJ software (NIH, Bethesda, Md.).

[3] = test system: MCF7 cells; test: MTT cytotoxicity assay, MCF7 cells; assay type: cell-based; settings: Homo sapiens, 72 hours, read-out: Inhibitory concentration 50% (IC50)
Protocol: (§3) FIGS. 1A-1B are graphs that show an anti-tumor effect of nifuroxazide. (FIG. 1A) Cells were treated with indicated concentration of nifuroxazide for 72 hours. Cytotoxicity was measured by using MTT assay. (FIG. 1B) Subcutaneously U87 tumor bearing mice were peritoneally injected with indicated doses of nifuroxazide. Tumor size was measured using calipers at day 7 post nifuroxazide treatment.
(§4) In this example, the antitumor effect of nifuroxazide is evaluated in different tumor cells. Cells were treated with nifuroxazide for 72 hours (FIG. 1A). […] To verify the anti-tumor efficacy of nifuroxazide in vivo, animals with subcutaneous U87 tumor implants were injected in the peritoneum with vehicle, 1 mg/kg nifuroxazide and 50 mg/kg nifuroxazide. […] Tumor volume was reduced around 25% and 60% after 7 days treatment with 1 mg/kg nifuroxazide and 50 mg/kg nifuroxazide respectively (FIG. 1B).
(§5) Cells were seeded in a 96-well plate at a density of 1×104 (U87). After overnight incubation, cells were treated with only vehicle or indicated MOI of virus or indicated concentration of drugs or reagents. After 2 to 3 days of treatment cell viability was measured by MTT assay (Sigma, Canada) according to the manufacturer's instruction. […] After overnight incubation with lysis buffer, cell viability was measured at 595 nm using a plate reader (Envision 2103 Multilabel reader, Perkin Elmer).

[4] = test system: oHSV-1 (HrR3) in U87 tumors; test: oHSV-1 amplification in subcutaneous U87 tumors in vivo (viral DNA qPCR, immunohistochemistry); set-up: species or system mice
Text: FIGS. 6A and 6B show results of in vivo dose dependent HrR3 replication augmentation by nifuroxazide. Subcutaneously U87 tumor bearing mice were intratumorally injected with single dose of HrR3 virus (n=2; […]) or peritoneally injected indicated concentration of nifuroxazide or both combination. Tumors were harvested at day 10 post treatment (FIG. 6A) Total genomic DNA was extracted from the harvested tumors. Viral DNA particles (ICP27) were detected by qPCR and normalized to β-actin. (FIG. 6B) ICP4 and STAT1 expression were determined by immunohistochemistry assay on harvested tumor tissues. Stained sections were then imaged using confocal microscopy.
In this example, oHSV-1 replication augmentation effect was evaluated in vivo. Subcutaneously implanted U87 tumors were treated with either HrR3 alone or in combination with 50 mg/kg nifuroxazide or 100 mg/kg nifuroxazide. Dose dependent oHSV-1 amplification was determined by measuring viral DNA by qPCR in tumor mass. oHSV-1 augmentation was observed 1.6 fold and 2.2 fold by 50 mg/kg nifuroxazide 100 mg/kg nifuroxazide respectively (FIG. 6A).

[5] = target: T1, STAT3 (Mus musculus, UniProt P42227); test: Western blot of STAT3 phosphorylation in CT26 cells; assay type: cell-based; settings: 24 hours
T1 construct: Total protein was extracted after 24 hours and subjected to western blot analysis; endogenous in cells; host or cells: CT26 cells, with or without HrR3 infection
Protocol: FIG. 19A and FIG. 19B, U87 cells (A) or CT26 cells (B) were treated with the indicated concentrations of HrR3 or NF or a combination. Total protein was extracted after 24 hours and subjected to western blot analysis. Band intensity was measured using Image J software and normalized to β-actin. Samples were run in triplicate and data are as means±S.E. Statistically significant differences are indicated by P<0.05 or P<0.01. FIG. 19C, Mice subcutaneously bearing U87 tumors were intratumorally injected with a single dose of HrR3 virus (1×10^6 PFU) and/or peritoneally injected doses of NF as indicated. Tumors were harvested on day 10 post treatment and total protein was extracted from a mouse of each treatment group and subjected to western blot analysis in triplicate. Results are reported as means±S.E.
NF is a known inhibitor of STAT1 and STAT3. To evaluate the underlying molecular mechanism of the anti-tumour effect of the NF and oHSV-1 combination, the STAT1 and STAT3 status in U87 cells (FIG. 19A) and CT26 cells (FIG. 19B) cells was determined after an overnight treatment with NF and oncolytic viruses.

[6] = test system: SF126 cells; test: MTT cytotoxicity assay, SF126 cells; assay type: cell-based; settings: Homo sapiens, SF-126, 72 hours, read-out: Inhibitory concentration 50% (IC50)
Protocol: as §3, §4, §5

T1 sequence (P42227 whole entry): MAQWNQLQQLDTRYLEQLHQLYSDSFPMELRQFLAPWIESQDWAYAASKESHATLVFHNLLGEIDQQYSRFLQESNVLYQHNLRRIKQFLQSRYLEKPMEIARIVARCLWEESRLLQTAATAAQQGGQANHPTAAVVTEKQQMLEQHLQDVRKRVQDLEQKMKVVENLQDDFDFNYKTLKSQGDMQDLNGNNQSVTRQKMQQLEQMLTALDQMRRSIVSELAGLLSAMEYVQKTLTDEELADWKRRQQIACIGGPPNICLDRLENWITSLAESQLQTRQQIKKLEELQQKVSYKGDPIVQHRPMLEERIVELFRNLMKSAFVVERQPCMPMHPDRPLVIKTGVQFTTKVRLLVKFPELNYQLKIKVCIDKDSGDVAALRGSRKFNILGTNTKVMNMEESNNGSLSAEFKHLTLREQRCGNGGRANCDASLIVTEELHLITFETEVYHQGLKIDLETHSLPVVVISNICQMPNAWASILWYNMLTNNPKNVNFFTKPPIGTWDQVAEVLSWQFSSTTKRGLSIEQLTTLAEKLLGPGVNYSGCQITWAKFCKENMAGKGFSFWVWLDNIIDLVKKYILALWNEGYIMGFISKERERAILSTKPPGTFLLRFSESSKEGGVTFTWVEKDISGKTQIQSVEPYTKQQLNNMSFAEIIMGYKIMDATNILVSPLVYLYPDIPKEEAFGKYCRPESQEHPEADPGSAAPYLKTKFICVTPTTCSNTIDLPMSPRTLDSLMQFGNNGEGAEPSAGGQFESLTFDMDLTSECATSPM

Compound | upregulation of pSTAT1 (Tyr701) induced by oHSV-1 ([1]; C16 1 μM, G207 MOI of 1, 24 hours) | expression level of STAT 1 ([1]; G207 infected microglial cells) | STAT 1 phosphorylation, LPS treated ([1]; Lps 1 μg/ml, C16 1 μM, 24 hours) | upregulation of pSTAT3 (Tyr705) induced by oHSV-1 ([2]; G207 MOI of 1, 24 hours) | STAT 3 phosphorylation, LPS treated ([2]; Lps 1 μg/ml, 24 hours) | IC50 [3] [µM] | oHSV-1 augmentation (viral DNA by qPCR in tumor mass) ([4]; 50 mg/kg nifuroxazide with HrR3, day 10) [fold] | oHSV-1 augmentation (viral DNA by qPCR in tumor mass) ([4]; 100 mg/kg nifuroxazide with HrR3, day 10) [fold] | oHSV-1 amplification by immunohistochemistry assay ([4]; harvested tumor tissues) | HrR3 induced upregulation of STAT3 phosphorylation [5] | phosphorylation of STAT3 ([5]; NF alone) | IC50 [6] [µM]
O=C1Nc2ccc3ncsc3c2/C1=C/c1c[nH]cn1 [C16, 6,8-Dihydro-8-(1H-imidazol-5-ylmethylene)-7H-pyrrolo[2,3-g]benzothiazol-7-one] | significantly suppress the upregulation | reduced after C16 treatment | inhibition in STAT 1/3 phosphorylation | significantly suppress the upregulation | inhibition in STAT 1/3 phosphorylation |  |  |  |  |  |  | 
O=C(N/N=C/c1ccc([N+](=O)[O-])o1)c1ccc(O)cc1 [nifuroxazide, Benzoic acid, 4-hydroxy-, [(5-nitro-2-furanyl)metylene]hydrazide] |  |  |  |  |  | ~20 | 1.6 | 2.2 | oHSV-1 amplification was also confirmed | effectively suppressed | dose dependent inhibition | ~20
